These results are taken from patent US10975068B2, “6-aminopyridin-3-yl thiazoles as modulators of RORγT” (Janssen Pharmaceutica NV, priority 2016, dated 2021).

For the assay, the target named is full-length human RORγt (Homo sapiens (Human), UniProt P51449). Put plainly: RORγt (full-length human) reporter assay, Conditions B or C. The class given is cell-based. To be noted: for IC50 / RORγt (FL) Reporter Assay B or C, % inhibition (value marked *): Conditions B or C; for IC50: read-out: RORγt (FL) Reporter Assay B or C, IC50; for inhibition at 6 µM: read-out: RORγt (FL) Reporter Assay B or C, % inhibition @ 6 μM, Conditions B or C; for RORγt (FL) Reporter Assay B or C, % inhibition (value marked *): marked *: footnote not given. The gist of the method: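 Readout is dual luciferase: firefly (GAL4-driven) normalized to DMSO-only and saturating-reference controls, then to CMV-Renilla. Full-length human RORγt fused to GAL4-DBD was transiently expressed in HEK293T; compound exposure ran overnight (16-20 h) starting 4-6 h after transfection, final FBS 1.3%, DMSO 0.1%.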
(In a reporter assay the amount or activity of a reporter protein is the signal.)

Usually IC50 stands for the concentration that gives 50% inhibition. Usually inhibition stands for the drop in the measured response relative to a control, in per cent.

Chain of full-length human RORγt (P51449 other isoform, or with tags, fused parts or gaps): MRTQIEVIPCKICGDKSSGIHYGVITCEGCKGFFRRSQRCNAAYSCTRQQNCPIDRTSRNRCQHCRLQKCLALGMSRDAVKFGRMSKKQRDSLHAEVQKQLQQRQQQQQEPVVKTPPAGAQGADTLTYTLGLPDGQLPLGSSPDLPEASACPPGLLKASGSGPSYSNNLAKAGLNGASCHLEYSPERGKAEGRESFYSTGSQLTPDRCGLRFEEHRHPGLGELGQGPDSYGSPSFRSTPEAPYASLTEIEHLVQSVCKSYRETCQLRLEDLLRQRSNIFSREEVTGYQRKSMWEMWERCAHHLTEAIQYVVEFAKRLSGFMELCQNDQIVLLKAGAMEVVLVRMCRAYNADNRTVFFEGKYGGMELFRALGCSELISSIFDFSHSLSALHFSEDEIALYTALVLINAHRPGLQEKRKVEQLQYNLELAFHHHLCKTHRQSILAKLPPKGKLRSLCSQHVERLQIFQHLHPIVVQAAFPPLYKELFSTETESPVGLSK

For the compound `C[C@H]1CCCCN1C(=O)c1nc(C(=O)NCC(C)(C)O)sc1-c1cnc(NC2CCCC2)cc1C(F)F` [Example 41, (S)-5-(6-(Cyclopentylamino)-4-(difluoromethyl)pyridin-3-yl)-N-(2-hydroxy-2-methylpropyl)-4-(2-methylpiperidine-1-carbonyl)thiazole-2-carboxamide], the IC50 worked out at 7.6 nM and the inhibition at 6 µM is 103%.
`C[C@H]1CC(F)(F)CN1C(=O)c1nc(C(=O)NCC(C)(C)O)sc1-c1cnc(NC2(C)CCC2)cc1C(F)(F)F` [Example 141, (S)-4-(4,4-Difluoro-2-methylpyrrolidine-1-carbonyl)-N-(2-hydroxy-2-methylpropyl)-5-(6-((1-methylcyclobutyl)amino)-4-(trifluoromethyl)pyridin-3-yl)thiazole-2-carboxamide]: the “RORγt (FL) Reporter Assay B or C, % inhibition (value marked *)” value (shortened to “RORγt … % inhibition (value marked *)”) is given as 100* % and the half-maximal inhibitory concentration (IC50) amounted to 23 nM.
`C[C@H]1CCCN1C(=O)c1nc(C(=O)NCC(C)(C)O)sc1-c1cnc(NC2CCCC2)cc1C(F)(F)F` [Example 38, (S)-5-(6-(Cyclopentylamino)-4-(trifluoromethyl)pyridin-3-yl)-N-(2-hydroxy-2-methylpropyl)-4-(2-methylpyrrolidine-1-carbonyl)thiazole-2-carboxamide]: the IC50 was 15 nM and the inhibition at 6 µM came out at 108%.
For `C[C@H]1CCCCN1C(=O)c1nc(C(=O)NCC(C)(C)O)sc1-c1cnc(NCC(C)(C)C)cc1C(F)(F)F` [Example 86, (S)—N-(2-Hydroxy-2-methylpropyl)-4-(2-methylpiperidine-1-carbonyl)-5-(6-(neopentylamino)-4-(trifluoromethyl)pyridin-3-yl)thiazole-2-carboxamide], the “RORγt … % inhibition (value marked *)” value is 127* % and the IC50 worked out at 13 nM.
As to `C[C@H](Nc1cc(C(F)F)c(-c2sc(C(=O)NCC(C)(C)O)nc2C(=O)N2CCCC[C@@H]2C)cn1)C1CC1` [Example 37, 5-(6-(((S)-1-Cyclopropylethyl)amino)-4-(difluoromethyl)pyridin-3-yl)-N-(2-hydroxy-2-methylpropyl)-4-((S)-2-methylpiperidine-1-carbonyl)thiazole-2-carboxamide], the IC50 was determined as 14 nM and the inhibition at 6 µM was 92.2%.
`C[C@H]1CCCN1C(=O)c1nc(C(=O)NCC(C)(C)O)sc1-c1cnc(NCC(C)(C)C)cc1C(F)(F)F` [Example 87, (S)—N-(2-Hydroxy-2-methylpropyl)-4-(2-methylpyrrolidine-1-carbonyl)-5-(6-(neopentylamino)-4-(trifluoromethyl)pyridin-3-yl)thiazole-2-carboxamide]: the “RORγt … % inhibition (value marked *)” value is 140* % and the concentration for half-maximal inhibition (IC50) is 29 nM.
On to `C[C@H](Nc1cc(C(F)F)c(-c2sc(C(=O)NCC(C)(C)O)nc2C(=O)N2CC(F)(F)C[C@@H]2C)cn1)C(F)(F)F` [Example 135], for which the “RORγt … % inhibition (value marked *)” value is recorded as 100* % and the IC50 stood at 39 nM.
For `CC(C)(C)CNc1cc(C(F)F)c(-c2sc(C(=O)NCC(C)(C)O)nc2C(=O)N2C3CCC2CC3)cn1` [Example 116, 4-((1s,4s)-7-Azabicyclo[2.2.1]heptane-7-carbonyl)-5-(4-(difluoromethyl)-6-(neopentylamino)pyridin-3-yl)-N-(2-hydroxy-2-methylpropyl)thiazole-2-carboxamide], the “RORγt … % inhibition (value marked *)” value is recorded as 110* % and the IC50 worked out at 34 nM.
The matching figures for `C[C@H]1CCCN1C(=O)c1nc(C(=O)NCC(C)(C)O)sc1-c1cnc(NC(C)(C)C)cc1C(F)(F)F` [Example 52, (S)-5-(6-(tert-Butylamino)-4-(trifluoromethyl)pyridin-3-yl)-N-(2-hydroxy-2-methylpropyl)-4-(2-methylpyrrolidine-1-carbonyl)thiazole-2-carboxamide]: 106* % and 8.8 nM.
On to `C[C@H](Nc1cc(C(F)(F)F)c(-c2sc(C(=O)NCC(C)(C)O)nc2C(=O)N2C3CCC2CC3)cn1)C1CC1` [Example 51, 4-((1s,4s)-7-Azabicyclo[2.2.1]heptane-7-carbonyl)-5-(6-(((S)-1-cyclopropylethyl)amino)-4-(trifluoromethyl)pyridin-3-yl)-N-(2-hydroxy-2-methylpropyl)thiazole-2-carboxamide], for which the “RORγt … % inhibition (value marked *)” value was 101* % and the IC50 stood at 4.8 nM.
